Values after ≈ are worked out from the molar mass of the structure shown. Read-outs that look alike come from different tables or passages of the source. Non-standard residues stand in square brackets, D forms with d. Residues, ends and D or L forms follow the SMILES beside them.
What was measured:
human red blood cells = assay: Hemolysis assay (MHC)
Protocol: To determine the MHC stock solutions, 8 mg/mL peptide in PBS (pH 7.4) was prepared, and 50 μL was diluted serially by l/2 in 50 μL of PBS (pH 7.4) in a 96-well plate (Costar or Nunc, polystyrene, untreated). […] Plasma was discarded, and the pellet was re-suspended in a 15 mL Falcon tube in 5 mL of PBS. The washing was repeated three times, and the remaining pellet was re-suspended in 10 mL of PBS. The hRBC suspension (50 μL) was added to each well, and the plate was incubated at room temperature for 4 h. MHC end points were determined by visual determination of the wells after the incubation period. Controls on each plate included a blank medium control (50 μL PBS + 50 μL of hRBCs suspension) and a hemolytic activity control (mQ-deionized water 50 μL + 50 μL hRBC suspension).

[1] = EYPG vesicle leakage assay; assay type: biochemical; settings: 10 μg/mL of compound; 10 mM TRIS, 107 mM NaCl, pH 7.4
Protocol: (§1) 5(6)-carboxyfluorescein (CF) was purchased from Sigma. EYPC, EYPG, and a Mini-Extruder were purchased from Avanti Polar Lipids. Egg PC or Egg PG thin lipid layers were prepared by evaporating a solution of 100 mg of EYPC or EYPG in 4 mL of MeOH/CHCl3 (1:1) on a rotary evaporator at room temperature and then dried in vacuo overnight. […] Extravesicular components were removed by gel filtration (Sephadex G-50) with 10 mM TRIS, 107 mM NaCl, pH 7.4 buffer. Final conditions: ∼2.5 mM PC or PG; inside: 50 mM CF, 10 mM TRIS, 10 mM NaCl, pH 7.4 buffer; outside: 10 mM TRIS, 107 mM NaCl, pH 7.4. […] The CF efflux was monitored at λem 517 nm (λex 492 nm) as a function of time after addition of the desired volume of peptide from 2 mg/mL stock in mQ water at t = 45 s, 10 and 50 μg/mL were monitored for both EYPC and EYPG. […] Fluorescence intensities were then normalized to the maximal emission intensity using I(t) = (It – I0)/(I∞ – I0) where I0 = It at peptide addition, I∞ = It at saturation of lysis.

[2] = EYPC vesicle leakage assay; assay type: biochemical; settings: 10 μg/mL of compound; 10 mM TRIS, 107 mM NaCl, pH 7.4
Protocol: as §1

[3] = CD spectroscopy, α-helix content; assay type: physicochemical; settings: 5 mM DPC in 7 mM PB buffer pH 7.4, Dichroweb Contin LL set 4
Protocol: CD experiments were measured on a Jasco J-715 spectropolarimeter. All the experiments were performed using Hellma Suprasil 110-QS 0.1 cm cuvettes. For each peptide, the measurements were performed in phosphate buffer (PB, pH = 7.4, 7 mM), 10% TFE, 20% TFE, 5 mM DPC. The buffer was degassed for 10 min under high vacuum before each set of experiments. The concentration of the peptides was 0.100 mg/mL, and each sample was measured in one accumulation. The scan rate was 20 nm/min, pitch was 0.5 nm, response was 16 s, and bandwidth was 1.0 nm. The nitrogen flow was kept >8 L/min. After each measurement, the cuvettes were washed successively with milli-Q H2O and PB (pH 7.4). The baseline was recorded under the same conditions and subtracted manually. Primary CD spectra were analyzed using DichroWeb[58] and Contin-LL method (set 4).[74]

A. baumannii ATCC19606 = system: A. baumannii ATCC19606
Procedure, shortened: (§2)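 Twofold dilution series vs. bacteria (OD600 0.022 dilution, about 5 × 10^5 CFU) in Mueller–Hinton pH 7.4. Incubated 37 °C, 16–20 h, static. MTT added; visual yellow endpoint = MIC.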

E. coli W3110 = settings: MH broth pH 7.4, 16–20 h, 37 °C
Procedure, shortened: as §2

K. pneumoniae NCTC418 = system: K. pneumoniae NCTC418
Procedure, shortened: as §2

P. aeruginosa PAO1 = settings: MH broth pH 7.4, 16–20 h, 37 °C
Procedure, shortened: as §2

[4] = system: Pseudomonas aeruginosa, Klebsiella pneumoniae, Acinetobacter baumannii, Escherichia coli, and methicillin-resistant Staphylococcus aureus; settings: summary of Table 1
Procedure, shortened: as §2

S. aureus COL MRSA = settings: for MIC S. aureus COL MRSA: MH broth pH 7.4, 16–20 h, 37 °C
Procedure, shortened: as §2

[5] = MH broth pH 7.4, 16–20 h, 37 °C

Compound	MHC (human red blood cells) [µg/mL]	MHC (human red blood cells; pH 7.4) [µg/mL]	EYPG vesicle leakage (%) [1] [%]	EYPC vesicle leakage (%) [2] [%]	α-helix content (%) [3] [%]	MIC A. baumannii ATCC19606 (A. baumannii ATCC19606; [5]) [µg/mL]	MIC E. coli W3110 (E. coli W3110) [µg/mL]	MIC K. pneumoniae NCTC418 (K. pneumoniae NCTC418; [5]) [µg/mL]	MIC K. pneumoniae NCTC418 (K. pneumoniae NCTC418; NCTC418) [µg/mL]	MIC P. aeruginosa PAO1 (P. aeruginosa PAO1) [µg/mL]	MIC, span over the five bacterial strains [4]	MIC S. aureus COL MRSA (S. aureus COL MRSA) [µg/mL]	MIC A. baumannii ATCC19606 (A. baumannii ATCC19606; ATCC19606) [µg/mL]	MIC A. baumannii ATCC19606 (A. baumannii ATCC19606; ATCC19606, pH 7.4) [µg/mL]	MIC S. aureus COL (S. aureus COL MRSA; COL) [µg/mL]
H-KKLLKLLKLLLKKLLKLLKLLL-NH2 [2ln65]	< 15.6	<15.6	73	40	91	>64	>64	>64	>64	>64	entirely inactive	>64	–	–	–
H-KKIIKIIKIII-NH2 [HP34]	63	62.5	95	10	68	–	32	>64	>64	>64	–	>64	12	8 to 16	–
CC[C@H](C)[C@H](NC(=O)[C@@H](NC(=O)[C@@H](NC(=O)[C@@H](CCCCN)NC(=O)[C@@H](NC(=O)[C@@H](NC(=O)[C@@H](CCCCN)NC(=O)[C@@H](NC(=O)[C@@H](NC(=O)[C@@H](CCCCN)NC(=O)[C@H](N)CCCCN)[C@@H](C)CC)[C@@H](C)CC)[C@@H](C)CC)[C@@H](C)CC)[C@@H](C)CC)[C@@H](C)CC)C(N)=O [HP35, kkIIkIIkIII] (H-[dK][dK]II[dK]II[dK]III-NH2)	125	125	98	13	22	8 (≈ 6.05 µM)	4 (≈ 3.03 µM)	>64	–	16 (≈ 12.1 µM)	–	>64	–	–	>64

— paper PMC10258794, “To Fold or Not to Fold: Diastereomeric Optimization of an α-Helical Antimicrobial Peptide” (Journal of Medicinal Chemistry, 2023)
